Structures can show the parent of a compound that is named as a salt.

The test has as its system mice. Briefly: Neuropharmacological Assay (SmartCube). It is filed as in vivo. The note with it: i.p. 15 min before behavioral test; 3 doses, most efficacious dose(s) presented.
Regarding `CC(C)NCC1OCCn2nc3ccccc3c21` (centres unmarked) [Compound 17, N-((3,4-dihydro-1H-[1,4]oxazino[4,3-b]indazol-1-yl)methyl)propan-2-amine], the “AD: ADHD (probability of class match)” value was “+ (LOQ≦ + <5%)”, the “AG: analgesic (probability of class match)” value (“AG: analgesic” below) is listed as “+ (LOQ≦ + <5%)”, the “AX: anxiolytic (probability of class match)” value (“AX: anxiolytic” for short) is “++ (5%≦ ++ <25%)” and the “CE: cognitive enhancer (probability of class match)” value (shortened to “CE: cognitive enhancer”) was “+ (LOQ≦ + <5%)”. In addition, the “DP: anti-depressant (probability of class match)” value (“DP: anti-depressant” below) is on record as “++ (5%≦ ++ <25%)”, the “HA: hallucinogen (probability of class match)” value (shortened to “HA: hallucinogen”) is recorded as “+ (LOQ≦ + <5%)”, the “MS: mood stabilizer (probability of class match)” value (from here on “MS: mood stabilizer”) was “+ (LOQ≦ + <5%)” and the “PS: anti-psychotic (probability of class match)” value (“PS: anti-psychotic” below) is listed as “+ (LOQ≦ + <5%)”. For the same compound, the “SD: sedative hypnotic (probability of class match)” value (from here on “SD: sedative hypnotic”) is on record as “+ (LOQ≦ + <5%)”, the “UN: uncharacterized CNS activity (probability of class match)” value (from here on “UN: uncharacterized CNS activity”) is listed as “++ (5%≦ ++ <25%)” and the “XG: anxiogenic (probability of class match)” value (“XG: anxiogenic” for short) is “+ (LOQ≦ + <5%)”.
On to `CCNCC1OCCn2nc3ccccc3c21.Cl` (centres unmarked) [Compound 18, N-((3,4-dihydro-1H-[1,4]oxazino[4,3-b]indazol-1-yl)methyl) ethanamine hydrogen chloride salt], for which the “AD: ADHD (probability of class match)” value is given as “+ (LOQ≦ + <5%)”, the “AG: analgesic” value is on record as “++ (5%≦ ++ <25%)”, the “AX: anxiolytic” value is on record as “++ (5%≦ ++ <25%)” and the “CE: cognitive enhancer” value is “++ (5%≦ ++ <25%)”. In addition, the “DP: anti-depressant” value is listed as “+ (LOQ≦ + <5%)”, the “HA: hallucinogen” value is given as “+ (LOQ≦ + <5%)”, the “MS: mood stabilizer” value is listed as “+ (LOQ≦ + <5%)” and the “PS: anti-psychotic” value is recorded as “++ (5%≦ ++ <25%)”. In addition, the “SD: sedative hypnotic” value was “+ (LOQ≦ + <5%)”, the “UN: uncharacterized CNS activity” value is “+ (LOQ≦ + <5%)” and the “XG: anxiogenic” value is reported as “+ (LOQ≦ + <5%)”.
On to `c1ccc2c3n(nc2c1)CCOC3CN1CCCC1` (centres unmarked) [Compound 19, 1-(pyrrolidin-1-ylmethyl)-3,4-dihydro-1H-[1,4]oxazino[4,3-b]indazole hydrogen chloride salt], for which the “AD: ADHD (probability of class match)” value is “+ (LOQ≦ + <5%)”, the “AG: analgesic” value is recorded as “++ (5%≦ ++ <25%)”, the “AX: anxiolytic” value is on record as “++ (5%≦ ++ <25%)” and the “CE: cognitive enhancer” value is “++ (5%≦ ++ <25%)”. For the same compound, the “DP: anti-depressant” value was “+++ (25%≦ +++ <50%)”, the “HA: hallucinogen” value is listed as “+ (LOQ≦ + <5%)”, the “MS: mood stabilizer” value is “+ (LOQ≦ + <5%)” and the “PS: anti-psychotic” value is “+ (LOQ≦ + <5%)”. In addition, the “SD: sedative hypnotic” value was “+ (LOQ≦ + <5%)”, the “UN: uncharacterized CNS activity” value is “+ (LOQ≦ + <5%)” and the “XG: anxiogenic” value was “+ (LOQ≦ + <5%)”.
Regarding `c1ccc2c3n(nc2c1)CCOC3CN1CCOCC1` (centres unmarked) [Compound 20, 1-(morpholinomethyl)-3,4-dihydro-1H-[1,4]oxazino[4,3-b]indazole hydrogen chloride salt], the “AD: ADHD (probability of class match)” value was “+ (LOQ≦ + <5%)”, the “AG: analgesic” value is on record as “++ (5%≦ ++ <25%)”, the “AX: anxiolytic” value was “+++ (25%≦ +++ <50%)” and the “CE: cognitive enhancer” value is “++ (5%≦ ++ <25%)”. The “DP: anti-depressant” value is given as “++ (5%≦ ++ <25%)”, the “HA: hallucinogen” value is given as “+ (LOQ≦ + <5%)”, the “MS: mood stabilizer” value is reported as “+ (LOQ≦ + <5%)” and the “PS: anti-psychotic” value is on record as “++ (5%≦ ++ <25%)”. Besides, the “SD: sedative hypnotic” value is “+ (LOQ≦ + <5%)”, the “UN: uncharacterized CNS activity” value is recorded as “+ (LOQ≦ + <5%)” and the “XG: anxiogenic” value is reported as “+ (LOQ≦ + <5%)”.
On to `c1ccc2c3n(nc2c1)CCOC3CNC1CC1` (centres unmarked) [Compound 21, N-((3,4-dihydro-1H-[1,4]oxazino[4,3-b]indazol-1-yl)methyl)cyclopropan amine hydrogen chloride salt], for which the “AD: ADHD (probability of class match)” value is listed as “+ (LOQ≦ + <5%)”, the “AG: analgesic” value is on record as “++ (5%≦ ++ <25%)”, the “AX: anxiolytic” value is “++ (5%≦ ++ <25%)” and the “CE: cognitive enhancer” value is “+ (LOQ≦ + <5%)”. The “DP: anti-depressant” value is recorded as “++ (5%≦ ++ <25%)”, the “HA: hallucinogen” value is given as “+ (LOQ≦ + <5%)”, the “MS: mood stabilizer” value is given as “+ (LOQ≦ + <5%)” and the “PS: anti-psychotic” value is listed as “++ (5%≦ ++ <25%)”. Also, the “SD: sedative hypnotic” value is given as “+ (LOQ≦ + <5%)”, the “UN: uncharacterized CNS activity” value is reported as “+ (LOQ≦ + <5%)” and the “XG: anxiogenic” value is on record as “+ (LOQ≦ + <5%)”.
With `CN(CC1OCCn2nc3ccccc3c21)C1CC1` (centres unmarked) [Compound 22, N-((3,4-dihydro-1H-[1,4]oxazino[4,3-b]indazol-1-yl)methyl)-N-methylcyclopropanamine hydrogen chloride salt], the “AD: ADHD (probability of class match)” value was “++ (5%≦ ++ <25%)”, the “AG: analgesic” value is “+ (LOQ≦ + <5%)”, the “AX: anxiolytic” value is “++ (5%≦ ++ <25%)” and the “CE: cognitive enhancer” value is on record as “+ (LOQ≦ + <5%)”. Moreover, the “DP: anti-depressant” value was “++++ (50%≦ ++++)”, the “HA: hallucinogen” value is listed as “++ (5%≦ ++ <25%)”, the “MS: mood stabilizer” value is given as “+ (LOQ≦ + <5%)” and the “PS: anti-psychotic” value is listed as “+ (LOQ≦ + <5%)”. Further, the “SD: sedative hypnotic” value is “+ (LOQ≦ + <5%)”, the “UN: uncharacterized CNS activity” value is listed as “++ (5%≦ ++ <25%)” and the “XG: anxiogenic” value is “+ (LOQ≦ + <5%)”.
Turning to `CN1CCC2(C1)OCCn1nc3ccccc3c12.Cl` (centres unmarked) [Compound 23, 1′-methyl-3,4-dihydrospiro[[1,4]oxazino[4,3-b]indazole-1,3′-pyrrolidin]-1′-ium chloride], the “AD: ADHD (probability of class match)” value is “+ (LOQ≦ + <5%)”, the “AG: analgesic” value was “++ (5%≦ ++ <25%)”, the “AX: anxiolytic” value was “++++ (50%≦ ++++)” and the “CE: cognitive enhancer” value is “++ (5%≦ ++ <25%)”. Further, the “DP: anti-depressant” value is given as “++ (5%≦ ++ <25%)”, the “HA: hallucinogen” value is recorded as “+ (LOQ≦ + <5%)”, the “MS: mood stabilizer” value is “+ (LOQ≦ + <5%)” and the “PS: anti-psychotic” value was “+ (LOQ≦ + <5%)”. In addition, the “SD: sedative hypnotic” value is given as “+ (LOQ≦ + <5%)”, the “UN: uncharacterized CNS activity” value is “+ (LOQ≦ + <5%)” and the “XG: anxiogenic” value is on record as “+ (LOQ≦ + <5%)”.
`CN1CCC2(CC1)OCCn1nc3ccccc3c12.Cl` [Compound 24, 1′-methyl-3,4-dihydrospiro[[1,4]oxazino[4,3-b]indazole-1,4′-piperidin]-1′-ium chloride]: the “AD: ADHD (probability of class match)” value is on record as “+ (LOQ≦ + <5%)”, the “AG: analgesic” value was “++ (5%≦ ++ <25%)”, the “AX: anxiolytic” value is listed as “++ (5%≦ ++ <25%)” and the “CE: cognitive enhancer” value is “++ (5%≦ ++ <25%)”. Besides, the “DP: anti-depressant” value is reported as “++ (5%≦ ++ <25%)”, the “HA: hallucinogen” value was “+ (LOQ≦ + <5%)”, the “MS: mood stabilizer” value was “+ (LOQ≦ + <5%)” and the “PS: anti-psychotic” value is reported as “++ (5%≦ ++ <25%)”. Moreover, the “SD: sedative hypnotic” value is listed as “+ (LOQ≦ + <5%)”, the “UN: uncharacterized CNS activity” value is “+ (LOQ≦ + <5%)” and the “XG: anxiogenic” value was “+ (LOQ≦ + <5%)”.
As to `CN1CCO[C@@H]([C@@H]2OCCn3nc4ccccc4c32)C1` [Compound 25, (2R)-2-((R)-3,4-dihydro-1H-[1,4]oxazino[4,3-b]indazol-1-yl)-4-methylmorpholin-4-ium chloride], the “AD: ADHD (probability of class match)” value was “++ (5%≦ ++ <25%)”, the “AG: analgesic” value was “++ (5%≦ ++ <25%)”, the “AX: anxiolytic” value is given as “++ (5%≦ ++ <25%)” and the “CE: cognitive enhancer” value is reported as “+ (LOQ≦ + <5%)”. Moreover, the “DP: anti-depressant” value is “++ (5%≦ ++ <25%)”, the “HA: hallucinogen” value was “+ (LOQ≦ + <5%)”, the “MS: mood stabilizer” value is reported as “+ (LOQ≦ + <5%)” and the “PS: anti-psychotic” value is “+ (LOQ≦ + <5%)”. Further, the “SD: sedative hypnotic” value is recorded as “+ (LOQ≦ + <5%)”, the “UN: uncharacterized CNS activity” value was “+ (LOQ≦ + <5%)” and the “XG: anxiogenic” value is on record as “+ (LOQ≦ + <5%)”.
With `CN1CCO[C@@H]([C@H]2OCCn3nc4ccccc4c32)C1` [Compound 26, (2R)-2-((S)-3,4-dihydro-1H-[1,4]oxazino[4,3-b]indazol-1-yl)-4-methylmorpholin-4-ium chloride], the “AD: ADHD (probability of class match)” value is listed as “+ (LOQ≦ + <5%)”, the “AG: analgesic” value was “++ (5%≦ ++ <25%)”, the “AX: anxiolytic” value was “+ (LOQ≦ + <5%)” and the “CE: cognitive enhancer” value was “+ (LOQ≦ + <5%)”. Besides, the “DP: anti-depressant” value is listed as “++ (5%≦ ++ <25%)”, the “HA: hallucinogen” value is recorded as “+ (LOQ≦ + <5%)”, the “MS: mood stabilizer” value was “+ (LOQ≦ + <5%)” and the “PS: anti-psychotic” value is given as “+ (LOQ≦ + <5%)”. The “SD: sedative hypnotic” value is reported as “+ (LOQ≦ + <5%)”, the “UN: uncharacterized CNS activity” value is reported as “+ (LOQ≦ + <5%)” and the “XG: anxiogenic” value is “+ (LOQ≦ + <5%)”.

Source of the values: patent publication US9758529B2, “Fused dihydro-4H-pyrazolo[5,1-C][1,4]oxazinyl compounds and analogs for treating CNS disorders” (Sunovion Pharmaceuticals Inc., priority 2015, dated 2017).
